Reference: patent publication US4372948A, “Derivative of saccharide and physiologically active agent containing the same” (Kureha Kagaku Kogyo Kabushiki Kaisha, priority 1980, dated 1983)

Tests used:
blood pressure = assay: Anti-hypertension activity (reduction of blood pressure); type: in vivo, rat (spontaneous hypertension); details: oral, 300 mg/kg
Summary of the method: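 Spontaneously hypertensive rats dosed orally at 300 mg/kg in distilled water. Blood pressure measured at 3 and 6 h. Activity taken as change from the value just before dosing.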

total cholesterol = assay: Anti-hyperlipemia activity, total cholesterol in blood; type: in vivo, rabbit (Japanese white male); details: oral, 300 mg/kg once; for Reduction of cholesterol level after 3 hrs.: negative = raising
Summary of the method: (§1)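 Male Japanese white rabbits fed 1% cholesterol diet for 3 months received compound once orally at 300 mg/kg in water. Ear-vein blood: cholesterol by enzymatic method, beta-lipoprotein by colorimetry; values are change from predose at 3 or 6 h.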

beta-lipoprotein = assay: Anti-hyperlipemia activity, beta-lipoprotein in blood; type: in vivo, rabbit (Japanese white male); details: oral, 300 mg/kg once
Summary of the method: as §1

exudation = assay: Anti-exudation activity (air pouch, croton oil); type: in vivo, rat; details: Rattus norvegicus, po, 144 h, 5 days, read-out: I.R. against exudation
Summary of the method: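 Rats, 6 per group, given subcutaneous dorsal air pouch injected with 0.5 ml sesame oil containing 1% croton oil. Compounds dosed orally in distilled water at 1000 mg/kg/day for five days; pouch exudate volume measured on day 6 and expressed as percent inhibition of exudation.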

[1] = tested on: pyrexia (Saccharomyces cerevisiae); assay: Anti-pyrexia activity (yeast-induced); type: in vivo; details: Rattus norvegicus, oral, read-out: Rate of inhibiting pyrexia (I.R.)
Summary of the method: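 Rats (n=6/group) received subcutaneous 20% Saccharomyces cerevisiae suspension, fasted 10 h, then dosed orally with 1000 mg/kg compound in distilled water. Rectal temperature was tracked at set intervals and the lowest value taken; inhibition rate computed against non-yeast and yeast-only control temperatures.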

Sarcoma-180 = assay: Anti-tumour activity against Sarcoma-180; type: in vivo, mouse (ICR-JCL); details: Mus musculus, Sarcoma-180, po, 600 h, 10 times every other day, tumour weight on 25th day, read-out: Antitumour activity, inhibiting rate (I.R.)
Summary of the method: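 ICR-JCL mice were given 1×10^6 Sarcoma-180 cells axillary; from 24 hours, compounds in saline were dosed orally at 500 mg/kg/time, 10 times every other day. Tumour nodes were weighed on day 25; inhibition rate = (1-T/C)×100(%) versus untreated tumour-bearing mice.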

level of blood sugar = assay: Anti-hyperglycemia activity (reduction of blood sugar level); type: in vivo, rat (Wistar, streptozotocin); details: oral, 300 mg/kg
Summary of the method: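 Streptozotocin-diabetic Wistar rats (60 mg/kg i.p., relapsed hyperglycemia after insulin) given compounds orally at 300 mg/kg in distilled water. Blood sugar measured in samples taken 3 and 6 h post-dose.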

carrageenin edema = assay: Anti-Carrageenin edema activity; type: in vivo, rat; details: Rattus norvegicus, po, 1000 mg/kg once, read-out: I.R. against carrageenin edema
Summary of the method: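 Rats (10 per group) given compound orally once at 1000 mg/kg in distilled water, then 0.1 ml 1% carrageenin injected into right hind foot pad. Foot pad thickness measured at intervals; inhibition rate (%) = (1−T/C)×100 versus carrageenin-only animals.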

[2] = tested on: pseudo-escaping reaction to tail pressure; assay: Analgetic activity against mechanical stimulation of pressure; type: in vivo, mouse (ICR female); details: oral, 1000 mg/kg
acetic acid writhing = assay: Analgetic activity against chemical stimulation of acetic acid (writhing); type: in vivo, mouse (ICR female); details: Mus musculus, po, 30 min before 0.6% acetic acid, read-out: I.R. of writhing
Source text: Rate of inhibition (I.R.) (%)=(1-T/C)×100
T represents the average number of writhing of the group of mice administered with the present compound and injected with acetic acid, and C represents the average number of writhing of the group of mice only injected with acetic acid (control).

in vivo = details: mouse, in vivo, po, mice, 7 days observation, read-out: LD50, acute oral toxicity
cotton pellet granuloma = assay: Anti-granuloma activity (cotton pellet); type: in vivo, rat; details: Rattus norvegicus, po, 192 h, 7 days, read-out: I.R. against cotton pellet edema
Summary of the method: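 Rats (6/group) implanted dorsally with two 30±1 mg cotton pellets; compounds given orally in distilled water at 1000 mg/kg/day once daily for 7 days. Granuloma excised on day 8 and dry weight measured; value is % inhibition of granuloma proliferation.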

| Structure (SMILES) | Reduced level of blood pressure after 3 hrs. (blood pressure) [mm Hg] | Reduced level of blood pressure after 6 hrs. (blood pressure) [mm Hg] | Reduction of cholesterol level after 3 hrs. (total cholesterol) [mg/dL] | Reduction of cholesterol level after 6 hrs. (total cholesterol) [mg/dL] | Reduction of beta-lipoprotein level after 3 hrs. (beta-lipoprotein) [mg/dL] | Reduction of beta-lipoprotein level after 6 hrs. (beta-lipoprotein) [mg/dL] | inhibition in vivo at 1000 mg/kg/day (exudation) [%] | inhibition in vivo at 1000 mg/kg [1] [%] | inhibition in vivo at 500 mg/kg (Sarcoma-180) [%] | Reduced level of blood sugar after 3 hrs. (level of blood sugar) [mg/dL] | Reduced level of blood sugar after 6 hrs. (level of blood sugar) [mg/dL] | inhibition in vivo at 1000 mg/kg (carrageenin edema) [%] | Pseudo-escapting reaction pressure [2] [mmHg] | Pseudo-escapting reaction time [2] [s] | inhibition in vivo at 1000 mg/kg (acetic acid writhing) [%] | LD50 at 168 h (in vivo) [mg/kg] | inhibition in vivo at 1000 mg/kg/day (cotton pellet granuloma) [%] |
| --- | --- | --- | --- | --- | --- | --- | --- | --- | --- | --- | --- | --- | --- | --- | --- | --- | --- |
| O=C(OCc1ccccc1)c1ccc(NC2O[C@H](CO)[C@@H](O)[C@H](O)[C@H]2O)cc1 (stereo partly drawn) [Compound 14, benzyl p-aminobenzoate-N-D-glucoside] | 24 | 24 | 3 | 38 | 143 | 146 | 6.9 | 56 | 42 | 65 | 93 | 5.1 | 92 | 44 | 39 | 11700 | 23.3 |
| O=C(OCc1ccccc1)c1ccc(NC2(CO)OC[C@@H](O)[C@@H](O)[C@@H]2O)cc1 (stereo partly drawn) [Compound 15, benzyl p-aminobenzoate-N-D-fructoside] | 18 | 20 | -1 | 45 | 150 | 154 | 7.5 | 26 | 43 | 72 | 85 | 30.8 | 78 | 37 | 19 | 11000 | 9 |
| O=C(OC1CCCCC1)c1ccccc1NC1C[C@H](O)[C@H](O)CO1 (stereo partly drawn) [Compound 16, cyclohexyl o-aminobenzoate-N-D-deoxyriboside] | 20 | 20 | 0 | 33 | 104 | 110 | 5.7 | 48 | 37 | 125 | 140 | 18.6 | 87 | 39 | 26 | 8800 | 6.5 |
| O=C(OC1CCCCC1)c1cccc(NC2O[C@H](CO)[C@@H](O)[C@H](O)[C@@H]2O)c1 (stereo partly drawn) [Compound 17, cyclohexyl m-aminobenzoate-N-D-mannoside] | 23 | 28 | -2 | 40 | 124 | 136 | 14.6 | 30 | 49 | 140 | 145 | 4.3 | 92 | 42 | 47 | > 15000 | 19.7 |
| O=C(OC1CCCCC1)c1ccc(NC2OC[C@@H](O)[C@H](O)[C@H]2O)cc1 (stereo partly drawn) [Compound 18, cyclohexyl p-aminobenzoate-N-D-xyloside] | 22 | 25 | 2 | 62 | 148 | 154 | 25 | 62 | 62 | 121 | 165 | 19.7 | 94 | 39 | 33 | > 15000 | 12.2 |
| O=C(OC1CCCCC1)c1ccc(NC2O[C@H](CO)[C@@H](O[C@@H]3O[C@H](CO)[C@@H](O)[C@H](O)[C@H]3O)[C@H](O)[C@H]2O)cc1 (stereo partly shown) [Compound 19, cyclohexyl p-aminobenzoate-N-cellobioside] | 20 | 21 | 3 | 41 | 135 | 148 | 24.6 | 37 | 51 | 101 | 113 | 5.5 | 82 | 37 | 24 | 14600 | 5.5 |
| O=C(OC1CCCCC1)c1ccc(NC2O[C@H](CO)[C@@H](O[C@H]3O[C@H](CO)[C@@H](O[C@H]4O[C@H](CO)[C@@H](O)[C@H](O)[C@H]4O)[C@H](O)[C@H]3O)[C@H](O)[C@H]2O)cc1 (stereo partly shown) [Compound 20, cyclohexyl p-aminobenzoate-N-maltotrioside] | 22 | 24 | -2 | 50 | 125 | 128 | 6.2 | 23 | 37 | 113 | 120 | 8.6 | 75 | 35 | 17 | 12500 | 21.7 |
| O=C(OCC1CCCCC1)c1ccccc1NC1O[C@H](CO)[C@@H](O[C@@H]2O[C@H](CO)[C@H](O)[C@H](O)[C@H]2O)[C@H](O)[C@H]1O (stereo partly shown) [Compound 21, hexahydrobenzyl o-aminobenzoate-N-lactoside] | 16 | 17 | 4 | 43 | 96 | 109 | 20.7 | 28 | 44 | 95 | 102 | 19.4 | 84 | 40 | 28 | > 15000 | 7.2 |
